# Experimental data taken from publication PMC10115881, “Disrupting the α-synuclein-ESCRT interaction with a peptide inhibitor mitigates neurodegeneration in preclinical models of Parkinson’s disease” (Nature Communications, 2023).
# Assays:
# [1] = test system: A53T a-syn or EV rats; test: AAV-A53T a-syn rat model, high titer, TH+ neurons; assay type: in vivo; settings: 6 weeks
# Excerpt: Third, we used a preclinical rat model of PD in which SN degeneration is induced by AAV vector-mediated expression of human mutant A53T a-syn[18],[45]–[48] (Fig. 5A). […] (Fig. 5B, C). […] Furthermore, overexpression of A53T a-syn was associated with a reduction in LAMP1 positive puncta in the SN which was restored with PDpep1.3 (Figs. 5E, S5E). […] Forelimb asymmetry in the cylinder test is a behavioral impairment associated with SN degeneration which models bradykinesia, the cardinal motor abnormality in PD[49].
# Adult female Sprague-Dawley rats (250–280 g; Envigo) were pair-housed in cages with wood bedding and had access to food and water ad libitum. […]
# Immunofluorescence staining for a-syn, pS129 a-syn, TH, and LAMP1 was performed by washing free-floating sections with PBS-T (0.1% Tween-20 or 0.2% Triton-X-100) three times for 10 min each at room temperature. […] Sections were then mounted onto glass slides and allowed to dry and then Dako fluorescence mounting medium (Agilent) was applied, followed by coverslips.
# Confocal images of immunofluorescent staining of midbrain sections were processed using HALO software (Indica Labs), which is a well validated tool for automatic quantification of neurons in brain tissue sections[70]–[72]. […] Levels of total a-syn were assessed in this ROI by measuring the area and intensity of anti-a-syn staining. […]
# [2] = test system: VPS4B-CHMP2B interaction; test: Co-immunoprecipitation: disruption of VPS4B-CHMP interaction; assay type: cell-based
# Method: HEK293T cells were co-transfected with Flag-tagged target protein, HA-tagged source protein, and GFP-tagged peptide or GFP. Cells were lysed 48 h after transfections with radioimmune precipitation assay buffer (50 mM Tris-HCl pH 7.4, 1% Nonidet P-40, 150 mM NaCl, 1 mM EDTA, 10 mM Na3VO4, 10 mM sodium pyrophosphate, 25 mM NaF, 1× protease inhibitor mixture (Sigma)) for 30 min at 4 °C and co-immunoprecipitated with Flag beads (Clontech). The resulting immunocomplexes were analyzed by immunoblot using the appropriate antibodies. Protein samples were separated using 4–20% Mini-PROTEAN Tris-glycine gels (Bio-Rad) transferred to PVDF membranes and blocked in 5% milk containing PBS-Tween-20 (0.1%) for 1 h. PVDF membranes were then incubated with specified primary antibodies followed by incubation with horseradish peroxidase-conjugated secondary antibodies (anti-mouse HRP-linked, Cell Signaling, catalog #7076, 1:5000; anti-rabbit HRP-linked, Cell Signaling, catalog #7074, 1:5000) and detected using enhanced chemiluminescence (GE Healthcare). HA antibodies were obtained from Santa Cruz (catalog #7392, 1:2000), GFP antibodies were purchased from Abcam (catalog #ab290, 1:2000), and Flag antibodies were purchased from Sigma (catalog #A8592, 1:1000).
sequence,measurement,setting,value
DEEIERQLKALG [PDpep1.3],Effect on neurodegeneration in SN,[1],neurodegeneration was mitigated
same,Effect on VPS4B-CHMP2B interaction,[2],inhibits the CHMP2B-VPS4 interaction
